A value given as a limit tells only on which side of the number the result lay.

These results are taken from patent US10683297B2 (Sunshine Lake Pharma Co., Ltd., priority 2017, dated 2020).

Common to all, as to type: biochemical
One test concerns the target T1, Aurora-B (h) (Homo sapiens, UniProt Q96GD4).
T1 construct: purchased Millipore UK Ltd (assays performed there as a service)
The experiment in a line: Aurora-B (h) kinase assay. The conditions noted are these: [γ-33P-ATP] 10 μM or KM values; 40 minutes at room temperature. On the procedure: (§1) The above assay procedure can be used to determine the IC50 for inhibition and/or the inhibition constant, Ki. […] The IC50 value is estimated by preparing a 10 point curve using a ½ log dilution series (for example, a typical curve may be prepared using the following compound concentrations: 3 μM, 1 μM, 0.3 μM, 0.1 μM, 0.03 μM, 0.01 μM, 0.003 μM, 0.001 μM, 0.0003 μM and 0 μM).
Aurora-B (h) is incubated with 8 mM MOPS pH 7.0, 0.2 mM EDTA, 30 μM […], 10 mM MgAcetate and [γ-^33PATP] […] The reaction is initiated by the addition of the MgATP mix. After incubation for 40 minutes at room temperature, the reaction is stopped by the addition of a 3% phosphoric acid solution. 10 μL of the reaction is then spotted onto a P30 filtermat and washed three times for 5 minutes in 75 mM phosphoric acid and once in methanol prior to drying and scintillation counting.
(§2) The kinase assays described herein were performed at Millipore UK Ltd, Dundee Technology Park, Dundee DD2 1SW, UK.

In another test the target is T2, Aurora-A (h) (Homo sapiens, UniProt O14965).
T2 construct: purchased Millipore UK Ltd (assays performed there as a service)
T2 sequence (O14965 1-403): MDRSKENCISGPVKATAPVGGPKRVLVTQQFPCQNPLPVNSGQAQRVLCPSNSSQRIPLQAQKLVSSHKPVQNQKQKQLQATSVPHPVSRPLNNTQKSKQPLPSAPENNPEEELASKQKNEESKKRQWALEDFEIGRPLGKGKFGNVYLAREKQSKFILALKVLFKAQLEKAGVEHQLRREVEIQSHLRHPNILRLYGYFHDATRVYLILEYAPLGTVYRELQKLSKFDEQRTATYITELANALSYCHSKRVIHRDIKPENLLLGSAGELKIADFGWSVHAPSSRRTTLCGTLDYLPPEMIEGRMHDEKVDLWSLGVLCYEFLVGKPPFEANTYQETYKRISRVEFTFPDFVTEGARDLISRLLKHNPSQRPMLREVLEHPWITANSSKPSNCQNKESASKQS
As to the kind of experiment: Aurora-A (h) kinase assay. The conditions noted are these: [γ-33P-ATP] 10 μM or KM values; 40 minutes at room temperature. As for the experimental part: as §1
Aurora-A (h) is incubated with 8 mM MOPS pH 7.0, 0.2 mM EDTA, 200 μM LRRASLG (Kemptide), 10 mM MgAcetate and [γ-^33P-ATP] […] The reaction is initiated by the addition of the MgATP mix. After incubation for 40 minutes at room temperature, the reaction is stopped by the addition of 3% phosphoric acid solution. 10 μL of the reaction is then spotted onto a P30 filtermat and washed three times for 5 minutes in 75 mM phosphoric acid and once in methanol prior to drying and scintillation counting.
as §2

The target in another test is T3, TYK2 (h) (Homo sapiens, UniProt P29597).
T3 construct: purchased Millipore UK Ltd (assays performed there as a service)
As to the kind of experiment: TYK2 (h) kinase assay. The conditions noted are these: [γ-33P-ATP] 10 μM or KM values; 40 minutes at room temperature. As for the experimental part: (§3) Kinase assays can be performed by measurement of incorporation of γ-^33P ATP into immobilized myelin basic protein (MBP). High binding white 384 well plates (Greiner) are coated with MBP (Sigma # M-1891) by incubation of 60 μL well of 20 μg/mL MBP in Tris-buffered saline (TBS; 50 mM Tris pH 8.0, 138 mM NaCl, 2.7 mM KCl) for 24 h at 4° C. Plates are washed 3× with 100 μL TBS. Kinase reactions are carried out in a total volume of 34 μL in kinase buffer (according to the need to make, for example, 5 mM Hepes pH 7.6, 15 mM NaCl, 0.01% bovine gamma globulin (Sigma #1-5506), 10 mM MgCl2, 1 mM DTT, 0.02% TritonX-100). Compound dilutions are performed in DMSO and added to assay wells to a final DMSO concentration of 1%. Each data point is measured in duplicate, and at least two duplicate assays are performed for each individual compound determination. Enzyme is added to final concentrations of 10 nM or 20 nM, for example. A mixture of unlabeled ATP and γ-^33P ATP is added to start the reaction (2×10^6 cpm of γ-^33P ATP per well (3000 Ci/mmole) and 10 μM unlabeled ATP, typically. The reactions are carried out for 1 hour at room temperature with shaking. Plates are washed 7× with TBS, followed by the addition of 50 μL well scintillation fluid (Wallac). Plates are read using a Wallac Trilux counter. This is only one format of such assays; various other formats are possible, as known to one skilled in the art.
as §1
TYK2 (h) is incubated with 8 mM MOPS pH 7.0, 0.2 mM EDTA, 250 μM […], 10 mM MgAcetate and [γ-^33P-ATP] […] The reaction is initiated by the addition of the MgATP mix. After incubation for 40 minutes at room temperature, the reaction is stopped by the addition of 3% phosphoric acid solution. 10 μL of the reaction is then spotted onto a P30 filtermat and washed three times for 5 minutes in 75 mM phosphoric acid and once in methanol prior to drying and scintillation counting.
as §2

A further test addresses T4, FLT4 (h) (Homo sapiens, UniProt P35916).
T4 construct: purchased Millipore UK Ltd (assays performed there as a service)
As to the kind of experiment: FLT4 (h) kinase assay. The conditions noted are these: [γ-33P-ATP] 10 μM or KM values; cells tagged (Flt4); read-out: IC50 (Flt4), printed in the FLT3 (h) column. On the procedure: as §3, §1
FLT4 (h) is incubated with 8 mM MOPS pH 7.0, 0.2 mM EDTA, 50 μM […], 10 mM MgAcetate and [γ-^33P-ATP] […] The reaction is initiated by the addition of the MgATP mix. After incubation for 40 minutes at room temperature, the reaction is stopped by the addition of 3% phosphoric acid solution. 10 μL of the reaction is then spotted onto a P30 filtermat and washed three times for 5 minutes in 75 mM phosphoric acid and once in methanol prior to drying and scintillation counting.
as §2

T4 sequence (P35916 25-1363): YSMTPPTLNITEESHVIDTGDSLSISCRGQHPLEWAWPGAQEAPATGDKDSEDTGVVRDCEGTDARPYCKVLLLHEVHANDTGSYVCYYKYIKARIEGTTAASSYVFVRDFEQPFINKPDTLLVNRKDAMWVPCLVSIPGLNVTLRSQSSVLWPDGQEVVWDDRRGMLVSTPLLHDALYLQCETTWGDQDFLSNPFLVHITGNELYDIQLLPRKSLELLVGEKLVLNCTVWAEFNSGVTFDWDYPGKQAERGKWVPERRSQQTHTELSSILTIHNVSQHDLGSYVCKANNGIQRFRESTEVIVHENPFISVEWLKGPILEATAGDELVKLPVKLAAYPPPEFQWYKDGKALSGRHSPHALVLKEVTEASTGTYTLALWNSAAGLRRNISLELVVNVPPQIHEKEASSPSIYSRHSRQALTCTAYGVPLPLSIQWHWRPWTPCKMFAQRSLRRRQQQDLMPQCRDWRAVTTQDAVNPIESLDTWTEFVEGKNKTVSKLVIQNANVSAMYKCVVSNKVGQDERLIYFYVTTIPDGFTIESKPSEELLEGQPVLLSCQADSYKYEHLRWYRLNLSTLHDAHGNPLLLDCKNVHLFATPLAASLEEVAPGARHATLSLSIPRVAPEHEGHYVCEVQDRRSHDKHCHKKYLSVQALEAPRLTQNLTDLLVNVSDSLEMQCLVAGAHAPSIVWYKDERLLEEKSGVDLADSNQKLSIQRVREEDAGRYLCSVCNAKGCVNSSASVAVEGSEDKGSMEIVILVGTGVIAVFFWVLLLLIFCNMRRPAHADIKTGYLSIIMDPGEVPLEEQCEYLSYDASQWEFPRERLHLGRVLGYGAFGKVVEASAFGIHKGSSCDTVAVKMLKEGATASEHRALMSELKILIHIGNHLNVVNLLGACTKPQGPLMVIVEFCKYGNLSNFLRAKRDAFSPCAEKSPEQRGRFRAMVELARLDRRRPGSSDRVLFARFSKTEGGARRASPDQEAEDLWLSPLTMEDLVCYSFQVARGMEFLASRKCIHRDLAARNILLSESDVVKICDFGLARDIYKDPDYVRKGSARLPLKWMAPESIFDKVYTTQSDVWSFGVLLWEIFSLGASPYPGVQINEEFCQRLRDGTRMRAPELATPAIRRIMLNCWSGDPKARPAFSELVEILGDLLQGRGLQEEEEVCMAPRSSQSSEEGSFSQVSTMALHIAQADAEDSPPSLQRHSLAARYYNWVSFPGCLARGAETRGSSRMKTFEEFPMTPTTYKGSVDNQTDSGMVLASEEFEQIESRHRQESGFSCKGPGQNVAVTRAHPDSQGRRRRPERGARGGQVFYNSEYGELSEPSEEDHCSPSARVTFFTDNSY
T1 sequence (Q96GD4 whole entry): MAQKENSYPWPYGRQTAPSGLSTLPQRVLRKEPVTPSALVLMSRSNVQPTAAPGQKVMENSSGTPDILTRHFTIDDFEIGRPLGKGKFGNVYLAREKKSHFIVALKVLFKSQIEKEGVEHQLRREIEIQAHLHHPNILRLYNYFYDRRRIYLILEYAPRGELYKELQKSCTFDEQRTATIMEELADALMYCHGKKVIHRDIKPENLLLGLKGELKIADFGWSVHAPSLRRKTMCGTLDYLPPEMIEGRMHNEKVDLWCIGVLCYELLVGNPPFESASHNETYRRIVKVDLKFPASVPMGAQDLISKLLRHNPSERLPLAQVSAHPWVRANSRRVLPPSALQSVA
T3 sequence (P29597 whole entry): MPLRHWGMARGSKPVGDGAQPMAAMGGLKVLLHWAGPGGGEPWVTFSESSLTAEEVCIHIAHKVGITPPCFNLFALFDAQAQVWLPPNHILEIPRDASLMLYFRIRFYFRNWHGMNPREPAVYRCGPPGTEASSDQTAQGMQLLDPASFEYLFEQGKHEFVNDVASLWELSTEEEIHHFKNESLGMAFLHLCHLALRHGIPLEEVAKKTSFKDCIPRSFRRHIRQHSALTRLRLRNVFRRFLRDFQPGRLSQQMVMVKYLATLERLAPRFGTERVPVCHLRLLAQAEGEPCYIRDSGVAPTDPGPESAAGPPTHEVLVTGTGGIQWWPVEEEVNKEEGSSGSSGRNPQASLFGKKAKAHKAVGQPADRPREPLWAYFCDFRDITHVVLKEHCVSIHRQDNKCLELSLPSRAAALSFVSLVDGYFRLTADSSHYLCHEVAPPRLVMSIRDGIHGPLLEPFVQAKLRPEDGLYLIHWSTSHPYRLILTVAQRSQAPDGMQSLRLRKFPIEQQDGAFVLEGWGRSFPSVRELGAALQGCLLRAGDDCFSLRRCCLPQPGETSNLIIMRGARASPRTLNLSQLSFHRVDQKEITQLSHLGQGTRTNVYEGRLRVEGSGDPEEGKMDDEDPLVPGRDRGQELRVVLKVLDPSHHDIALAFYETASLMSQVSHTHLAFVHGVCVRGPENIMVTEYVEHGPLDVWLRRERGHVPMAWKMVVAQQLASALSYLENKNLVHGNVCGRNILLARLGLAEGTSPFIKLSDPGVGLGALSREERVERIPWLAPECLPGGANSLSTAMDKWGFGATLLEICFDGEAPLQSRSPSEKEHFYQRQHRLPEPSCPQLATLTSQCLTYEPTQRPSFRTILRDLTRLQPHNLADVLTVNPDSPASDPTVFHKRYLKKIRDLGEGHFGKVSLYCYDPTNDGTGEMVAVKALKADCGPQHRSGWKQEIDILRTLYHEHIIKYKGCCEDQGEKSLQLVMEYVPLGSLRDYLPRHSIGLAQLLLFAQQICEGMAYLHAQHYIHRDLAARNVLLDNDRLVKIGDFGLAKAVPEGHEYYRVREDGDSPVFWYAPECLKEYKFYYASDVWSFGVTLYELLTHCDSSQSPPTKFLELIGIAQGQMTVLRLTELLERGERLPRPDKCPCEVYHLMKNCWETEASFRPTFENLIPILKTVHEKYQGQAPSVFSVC

Broadly, the IC50 is the concentration that gives 50% inhibition. `CCC1CN(c2ccc(C#N)cn2)CCC1Nc1nc(Nc2ccn3c(C)cnc3c2)ncc1Cl` (stereo not shown) [Example 2, 6-(4-((5-chloro-2-((3-methylimidazo[1,2-a]pyridin-7-yl)amino)pyrimidin-4-yl)amino)-3-ethylpiperidin-1-yl)nicotinonitrile] returned an IC50 at Aurora-B (h) of 46 nM.

For `CCC1CN(c2ccc(C#N)nn2)CCC1Nc1nc(Nc2ccn3c(C)cnc3c2)ncc1Cl` (stereo not shown) [Example 3, 6-(4-((5-chloro-2-((3-methylimidazo[1,2-a]pyridin-7-yl)amino)pyrimidin-4-yl)amino)-3-ethylpiperidin-1-yl)pyridazine-3-carbonitrile], the IC50 against Aurora-B (h) stood at 102 nM.

For the molecule `Cc1cnc2cc(Nc3ncc(Cl)c(NC4CCN(c5ccc(C#N)nn5)CC4)n3)ccn12` [Example 12, 6-(4-((5-chloro-2-((3-methylimidazo[1,2-a]pyridin-7-yl)amino)pyrimidin-4-yl)amino)piperidin-1-yl)pyridazine-3-carbonitrile], the IC50 on Aurora-B (h) is 115 nM; at Aurora-A (h) it was 281 nM.

For the molecule `N#Cc1ccc(N2CCC(Nc3nc(Nc4ccn5c(C(F)F)nnc5c4)ncc3Cl)CC2)nc1` [Example 30, 6-(4-((5-chloro-2-((3-(difluoromethyl)-[1,2,4]triazolo[4,3-a]pyridin-7-yl)amino)pyrimidin-4-yl)amino)piperidin-1-yl)nicotinonitrile], the IC50 against TYK2 (h) turned out to be 4 nM; against Aurora-A (h), 630 nM.

Molecule `CC(C)(O)c1nc2cc(Nc3ncc(Cl)c(NC4CCN(c5ccc(C#N)cn5)CC4)n3)ccn2n1` [Example 39, 6-(4-((5-chloro-2-((2-(2-hydroxypropan-2-yl)-[1,2,4]triazolo[1,5-a]pyridin-7-yl)amino)pyrimidin-4-yl)amino)piperidin-1-yl)nicotinonitrile] had an IC50 on Aurora-A (h) of 708 nM. Still for that read-out and setting: in the case of `CC(C)(O)c1nnc2cc(Nc3ncc(Cl)c(NC4CCN(c5ccc(C#N)cn5)CC4)n3)ccn12` [Example 40] it was 119 nM. For the molecule `Cn1cnc2cc(Nc3ncc(Cl)c(NC4CCN(c5ccc(C#N)cn5)CC4)n3)ccc21` [Example 46, 6-(4-((5-chloro-2-((1-methyl-1H-benzo[d]imidazol-5-yl)amino)pyrimidin-4-yl)amino)piperidin-1-yl)nicotinonitrile], the IC50 at Aurora-A (h) worked out at 187 nM.

The molecule `Cn1nnc2cc(Nc3ncc(Cl)c(NC4CCN(c5ccc(C#N)nn5)CC4)n3)ccc21` [Example 47, 6-(4-((5-chloro-2-((l-methyl-1H-benzo[d][1,2,3]triazol-5-yl)amino)pyrimidin-4-yl)amino)piperidin-1-yl)pyridazine-3-carbonitrile] had a half-maximal inhibitory concentration (IC50) on Aurora-A (h) of 116 nM. For the molecule `Cc1nc2cc(Nc3ncc(Cl)c(NC4CCN(c5ccc(C#N)cn5)CC4)n3)ccc2n1C` [Example 48, 6-(4-((5-chloro-2-((1,2-dimethyl-1H-benzo[d]imidazol-5-yl)amino)pyrimidin-4-yl)amino)piperidin-1-yl)nicotinonitrile], the IC50 at Aurora-A (h) was 315 nM. As for `CC(C)(O)c1nc2cc(Nc3ncc(Cl)c(NC4CCN(c5ccc(C#N)nn5)CC4)n3)ccn2n1` [Example 55, 6-(4-((5-chloro-2-((2-(2-hydroxypropan-2-yl)-[1,2,4]triazolo[1,5-a]pyridin-7-yl)amino)pyrimidin-4-yl)amino)piperidin-1-yl)pyridazine-3-carbonitrile], the IC50 against Aurora-B (h) is 200 nM; at FLT4 (h), 95 nM; against Aurora-A (h), more than 300 nM. On Aurora-A (h), `CC(O)Cc1nc2cc(Nc3ncc(Cl)c(NC4CCN(c5ccc(C#N)nn5)CC4)n3)ccn2n1` (stereo not shown) [Example 56, 6-(4-((5-chloro-2-((2-(2-hydroxypropyl)-[1,2,4]triazolo[1,5-a]pyridin-7-yl)amino)pyrimidin-4-yl)amino)piperidin-1-yl)pyridazine-3-carbonitrile] returned an IC50 of more than 300 nM. Turning to `N#Cc1ccc(N2CCC(Nc3nc(Nc4ccc5c(c4)nnn5CC4CC4)ncc3Cl)CC2)nc1` [Example 60, 6-(4-((5-chloro-2-((1-(cyclopropylmethyl)-1H-benzo[d][1,2,3]triazol-5-yl)amino)pyrimidin-4-yl)amino)piperidin-1-yl)nicotinonitrile], the 50% inhibitory concentration (IC50) on Aurora-B (h) and on Aurora-A (h) was 216 nM throughout. The molecule `CC(C)(O)c1cnc2cc(Nc3ncc(Cl)c(NC4CCN(c5ccc(C#N)cn5)CC4)n3)ccn12` [Example 68, 6-(4-((5-chloro-2-((3-(2-hydroxypropan-2-yl)imidazo[1,2-a]pyridin-7-yl)amino)pyrimidin-4-yl)amino)piperidin-1-yl)nicotinonitrile] registered an IC50 at Aurora-B (h) of 223 nM. For `CC(C)(O)c1cn2ccc(Nc3ncc(Cl)c(NC4CCN(c5ccc(C#N)cn5)CC4)n3)cc2n1` [Example 70, 6-(4-((5-chloro-2-((2-(2-hydroxypropan-2-yl)imidazo[1,2-a]pyridin-7-yl)amino)pyrimidin-4-yl)amino)piperidin-1-yl)nicotinonitrile], at Aurora-B (h), the IC50 amounted to 125 nM. Turning to `CC(C)(O)Cc1cn2cc(Nc3ncc(Cl)c(NC4CCN(c5ccc(C#N)cn5)CC4)n3)ccc2n1` [Example 73, 6-(4-((5-chloro-2-((2-(2-hydroxy-2-methylpropyl)imidazo[1,2-a]pyridin-6-yl)amino)pyrimidin-4-yl)amino)piperidin-1-yl)nicotinonitrile], the values for the IC50 against Aurora-B (h) and on FLT4 (h) were 13 nM and 87 nM, respectively. For `CC(C)(O)Cc1nnc2cc(Nc3ncc(Cl)c(NC4CCN(c5ccc(C#N)cn5)CC4)n3)ccn12` [Example 74, 6-(4-((5-chloro-2-((3-(2-hydroxy-2-methylpropyl)-[1,2,4]triazolo[4,3-a]pyridin-7-yl)amino)pyrimidin-4-yl)amino)piperidin-1-yl)nicotinonitrile], in that order: 46 nM and 57 nM.

Turning to `CC(C)(O)Cc1nnc2cc(Nc3ncc(Cl)c(NC4CCN(c5ccc(C#N)nn5)CC4)n3)ccn12` [Example 75, 6-(4-((5-chloro-2-((3-(2-hydroxy-2-methylpropyl)-[1,2,4]triazolo[4,3-a]pyridin-7-yl)amino)pyrimidin-4-yl)amino)piperidin-1-yl)pyridazine-3-carbonitrile], the values for the IC50 at Aurora-B (h) and on FLT4 (h) were 184 nM and 202 nM, respectively.
